Where two headings read alike, the source gives them in different places.
How the values were obtained:
ARPE-19 cells = test system: ARPE-19 cells
Method: Cell Viability Assay. […] 1× AlamarBlue solution prepared in OptiMEM was used to replace the media supernatant and the plate's fluorescence was determined at 555 nm excitation/585 nm emission with a SpectraMax M (Molecular Devices, CA, USA), after 1 h. […] The exact timing of appearance of far-red (DRAQ7=plasma membrane leakage) and blue (NUC405=caspase 3 activation) fluorescence signals was critical to differentiate apoptosis and necrosis from secondary events, such as membrane damage and generalized proteolytic activation during the late phase of apoptosis and necrosis, respectively.
Real time monitoring of necrotic and apoptotic cell-death. Cell-death assay to study Lipofuscin's dark toxicity was performed. 90% confluent ARPE-19 or hfRPE were incubated overnight in serum free media supplemented with indicated LB concentration. Viability was assessed at 24 hrs by AlamarBlue®, or microscopy with NUC405/DRAQ7. Real time monitoring of necrotic (red) and apoptotic (blue) cell-death was performed by automated fluorescence microscopy. The exact timing of appearance of far-red (DRAQ7=plasma membrane leakage) and blue (NUC405=caspase 3 activation) fluorescence signals was critical to differentiate apoptosis and necrosis from secondary events, such as membrane damage and generalized proteolytic activation during the late phase of apoptosis and necrosis, respectively.
Chemical inhibitors. Chemical inhibitors used in this study are described in FIG. 12.

hfRPE = assay: Light-independent lipofuscin cell-death/viability assay in hfRPE; type: cell-based, Human
Method: Cell culture. Human retinal pigment epithelium (ARPE-19) cells were obtained from ATCC and were cultured in Dulbecco's modified Eagle's medium (DMEM) supplemented with 10% FBS and 1% penicillin/streptomycin. Cells were kept in an incubator with 5% C02 and 95% humidified air at 37° C. Human fetal RPE (hfRPE) cells from donors at 16 to 18 weeks gestation were cultured at 37° C., 5% C02 in RPE medium. To grow polarized hfRPE cells, the cells were seeded in 12 well transwell plate in 1% RPE medium with Rock kinase inhibitor for the first week. After the first week, cells were cultured in normal 1% RPE medium for 3 weeks. Cells were used in passage 1.
Real time monitoring of necrotic and apoptotic cell-death.

pMLKL = assay: Fluorescence microscopy of pMLKL plasma membrane translocation in ARPE-19 monolayers; type: cell-based, Human; settings: ARPE-19 with A2E or ATRD
Source text: Chronic accumulation of polymeric pMLKL could account for progressive damage in pigmented retinas as they amass LF.

[1] = test system: activated microglia/macrophages; assay: Intravitreal treatment of DKO mice, subretinal microglia/macrophage infiltration; type: in vivo, ABCA4−/− RDH8−/− double knock-out mice (DKO)
Method: Animals. Pigmented ABCA4^−/− RDH8^−/− double knock-out mice (DKO), free of rd8 mutation, were purchased from Jackson laboratories and every 10 generations were in house backcrossed to the C57BL6J control strain, to prevent genetic drifts. Genotyping was performed at Transnetyx (Memphis, TN). Only mice with ABCA4, RDH8, RPE65-Leu450 but no crb1 mutations (retinal degeneration slow) were maintained in the colony. Controls C57BL/6J (Rpe65-Leu450, crb1negative) were also Jackson's lab. All mice were housed at Weill Cornell Medicine's animal facility under a 12 h light (˜10 lux)/12 h dark cycle environment or under complete darkness. Experimental manipulations in the dark were done under dim red light transmitted through a Kodak No. 1 safelight filter (transmittance >560 nm). No retinal degeneration or necroptosis markers were appreciably detected in 20 months or older C57BL6/N (Rpe65-Met450, crb1 positive) obtained from the NAI/NIH. All animal procedures and experiments were approved by the Animal Care and Use Committee of Weill Cornell Medical College in agreement with the guidelines established by the NIH Office of Laboratory Animal Welfare and the Association of Research for Vision and Ophthalmology (ARVO) statement for the use of animals in ophthalmic research. […]
Pharmacological treatment of mice. […] The exact volume of Mock reagent or Kira6 was determined by 10 μl Hamilton syringe. […]

SMILES	protection against light-independent LF (A2E/ATRD) cytotoxicity, RPE survival (ARPE-19 cells)	survival to LF in hfRPE (hfRPE)	effect on LF-induced pMLKL plasma membrane localization (pMLKL)	Iba-1+ cells attached to the apical side of RPE ([1]; RPE-flat mounts, center to periphery)	protection against light-independent LF (A2E/ATRD) cytotoxicity, RPE survival (ARPE-19 cells; ARPE-19, inhibitor pretreatment, A2E/ATRD 24 h, no light, AlamarBlue)	protection against light-independent LF (A2E/ATRD) cytotoxicity, RPE survival (ARPE-19 cells; ARPE-19, inhibitor pretreatment, A2E/ATRD 24 h, no light, AlamarBlue, listed as Nec-7)	infiltration of CD11b cells in the subretinal space ([1]; RPE-flat mounts from 25- to 27-month-old DKO mice)
CC(C)(C)c1nc(-c2ccc(NC(=O)Nc3cccc(C(F)(F)F)c3)c3ccccc23)c2c(N)nccn12 [KIRA6]	sufficient to protect against necroptosis by LF	promote survival to LF	inhibition of pMLKL plasma membrane translocation	No Iba-1+ cells were detected			
N=C1S/C(=C\c2cn[nH]c2-c2ccc(F)cc2)C(=O)N1c1nccs1 [Nec7, Necrostatin 7]		promote survival to LF	effectively reverted the pMLKL membrane localization pattern		highly protective	protects against necroptosis by lipofuscin	reduced the infiltration of CD11b cells

Source: patent US20240082221A1, “COMPOSITIONS AND METHODS FOR THE IDENTIFICATION OF COMPOUNDS THAT PROTECT AGAINST LIPOFUSCIN CYTOTOXICITY” (priority 2021, published 2024)
